Counter-ions that a name gives are not always drawn. Like-named read-outs stand apart in the source and are kept apart here.
What was measured:
[1] = Pulse radiolysis (E(1) and fragmentation rate); assay type: physicochemical; details: for kfrag. (fragmentation rate constant upon 1-electron reduction): benzyl-type radical formation; for E (1)/V (one-electron reduction potential): determined against methylviologen
Description: (§1) Pulse radiolysis was used to monitor the 1-electron reduction and stability of the compounds in real time. A linear accelerator delivering short pulses of high energy electrons (2-3 Gy in 200 ns of 4 MeV) equipped with a fast spectophotometric detection system was used. (Anderson et al, J. Phys. Chem. A, 101, 9704-9709, 1997). […] The rate of fragmentation was determined by analysing kinetic transients at wavelengths corresponding to the formation of the benzyl-type radical of the trigger moiety. (Bays et al, J. Am. Chem. Soc., 105, 320-324, 1983; Anderson et al, J. Phys. Chem. A, 101, 9704-9709, 1997).
The pulse radiolysis method, for example, measures the equilibrium constant between the radical anions of the prodrugs, formed upon their 1-electron reduction, and reference standards such as viologen and quinone compounds, from which data the E(1) values of the compounds can be calculated. (Meisel and Czapski. J. Phys. Chem., 1975, 79, 1503-1509.) The E(1) values of prodrugs 17-22, 140-145 were measured by the pulse radiolysis method and determined to range between −0.493V and −0.388V (Table 4).
The rate constants for fragmentation, kfrag, of the 1-electron reduced prodrugs can be measured using pulse radiolysis to observe the time-resolved formation of the absorption spectrum of the benzyl-type radical produced upon fragmentation of the radical anion. (Anderson et al, J. Phys. Chem. A, 1997, 101, 9704-9709.) The kfrag values of prodrugs 19, 20, 140, 141 and 143-145 were measured by pulse radiolysis and are presented in Table 4.
as §1, with “one-electron” for “1-electron”, “prodrug 42” for “the compounds”, “used.” for “used. (Anderson et al, J. Phys. Chem. A, 101, 9704-9709, 1997).”, “1997.)” for “1997).”

A431 cells = assay: Cellular growth inhibition (sulforhodamine B); details: for A431 HCR (Hypoxic Cytotoxicity Ratio): Table 3
HT29 cells = assay: Cellular growth inhibition (sulforhodamine B); assay type: cell-based, Human; details: Table 7
H1975 cells = assay: Cellular growth inhibition (sulforhodamine B); assay type: cell-based, Human
[2] = Steady state radiolytic reduction by the CO2.− radical with HPLC-MS; assay type: physicochemical; details: for Detection of MNA (methyl nitroaromatic) / release of effector following 1-electron reduction: HPLC-MS; for % Loss of prodrug: HPLC-MS at 0.95 reducing equivalents; for release of effector following 1-electron reduction: steady state radiolysis
erbB1 = erbB1 (Homo sapiens, UniProt P00533); assay: Inhibition of erbB1 autophosphorylation in EGF-stimulated intact A431 cells (Western blot)
SW620 cells = assay: Cellular growth inhibition (sulforhodamine B); assay type: cell-based, Human; details: Table 3; for IC50: Homo sapiens, SW-620
SKBR3 cells = assay: Cellular growth inhibition (sulforhodamine B); assay type: cell-based, Human; details: Table 3; for IC50: Homo sapiens, SK-BR-3
SKOV3 cells = assay: Cellular growth inhibition (sulforhodamine B); assay type: cell-based, Human; details: Table 9; for IC50: Homo sapiens, SK-OV-3
[3] = read-out: Cellular Growth Inhibition IC50 A431 Anoxic, Table 7, initial 4 hours anoxic
[4] = read-out: Cellular Growth Inhibition IC50 A431 Oxic, Table 7, 24 hour exposure oxic
[5] = 24 hour exposure oxic, read-out: Cellular Growth Inhibition IC50 HT29 Oxic
[6] = initial 4 hours anoxic, read-out: Cellular Growth Inhibition IC50 HT29 Anoxic
[7] = Table 7, 24 hour exposure oxic, read-out: Cellular Growth Inhibition IC50 H1975 Oxic
[8] = Table 7, initial 4 hours anoxic, read-out: Cellular Growth Inhibition IC50 H1975 Anoxic
[9] = 24 hour exposure entirely oxic, read-out: Cellular Growth Inhibition IC50 SW620 Oxic
[10] = first 4 hours anoxic, read-out: Cellular Growth Inhibition IC50 SW620 Anoxic
[11] = Homo sapiens, A-431, 24 h, read-out: Cellular Growth Inhibition IC50 A431 Oxic
[12] = Homo sapiens, A-431, read-out: Cellular Growth Inhibition IC50 A431 Anoxic
[13] = 24 hour exposure entirely oxic, read-out: Cellular Growth Inhibition IC50 SKBR3 Oxic
[14] = first 4 hours anoxic, read-out: Cellular Growth Inhibition IC50 SKBR3 Anoxic

Chain of erbB1 (P00533 25-1210): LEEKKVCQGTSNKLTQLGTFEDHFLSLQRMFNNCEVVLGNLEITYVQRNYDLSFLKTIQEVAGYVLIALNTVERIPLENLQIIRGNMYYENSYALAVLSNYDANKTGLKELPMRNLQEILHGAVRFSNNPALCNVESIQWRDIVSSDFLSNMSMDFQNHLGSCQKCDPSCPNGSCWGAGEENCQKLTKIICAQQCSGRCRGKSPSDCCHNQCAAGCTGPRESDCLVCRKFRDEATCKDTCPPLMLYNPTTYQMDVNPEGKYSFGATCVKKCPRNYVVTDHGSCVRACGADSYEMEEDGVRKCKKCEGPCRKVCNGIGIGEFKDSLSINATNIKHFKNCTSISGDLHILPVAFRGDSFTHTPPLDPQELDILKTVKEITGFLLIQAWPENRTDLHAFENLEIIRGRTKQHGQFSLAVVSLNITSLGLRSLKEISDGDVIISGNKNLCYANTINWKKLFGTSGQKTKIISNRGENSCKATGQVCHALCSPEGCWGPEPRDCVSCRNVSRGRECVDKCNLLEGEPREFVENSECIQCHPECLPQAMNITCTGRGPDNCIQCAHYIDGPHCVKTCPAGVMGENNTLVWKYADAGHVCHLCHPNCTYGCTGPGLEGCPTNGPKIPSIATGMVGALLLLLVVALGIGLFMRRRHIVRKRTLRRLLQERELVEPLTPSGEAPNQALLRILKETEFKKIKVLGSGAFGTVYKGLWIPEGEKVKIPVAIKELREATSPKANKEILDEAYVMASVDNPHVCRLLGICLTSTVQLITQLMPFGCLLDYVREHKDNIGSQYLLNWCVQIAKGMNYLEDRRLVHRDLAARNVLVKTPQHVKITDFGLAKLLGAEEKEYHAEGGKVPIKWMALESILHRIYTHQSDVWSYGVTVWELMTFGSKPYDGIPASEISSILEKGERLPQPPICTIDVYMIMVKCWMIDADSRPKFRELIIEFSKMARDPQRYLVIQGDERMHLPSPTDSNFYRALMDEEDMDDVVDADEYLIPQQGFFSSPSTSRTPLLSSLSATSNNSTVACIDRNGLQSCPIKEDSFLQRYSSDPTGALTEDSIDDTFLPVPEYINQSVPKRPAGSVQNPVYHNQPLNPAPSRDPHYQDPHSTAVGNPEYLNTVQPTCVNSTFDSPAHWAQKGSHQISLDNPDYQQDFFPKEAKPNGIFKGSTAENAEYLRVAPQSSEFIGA

| Compound | E (1)/V (one-electron reduction potential) [1] [V] | IC50 (A431 cells; [3]) [nM] | IC50 (A431 cells; [4]) [nM] | IC50 (HT29 cells; [5]) [nM] | IC50 (HT29 cells; [6]) [nM] | IC50 (H1975 cells; [7]) [nM] | IC50 (H1975 cells; [8]) [nM] | Detection of MNA (methyl nitroaromatic) [2] | % Loss of prodrug [2] [%] | melting point | kfrag. (fragmentation rate constant upon 1-electron reduction) [1] [s⁻¹] | A431 HCR (A431 cells; Table 7) [fold] | H1975 HCR (H1975 cells; Table 7) [fold] | also measured |
| --- | --- | --- | --- | --- | --- | --- | --- | --- | --- | --- | --- | --- | --- | --- |
| CC[N+](CC)(CCOc1ccc(Nc2ncc3cc(-c4c(Cl)cccc4Cl)c(=O)n(C)c3n2)cc1)Cc1c([N+](=O)[O-])nc(C)n1C.[Br-] [Compound 141, 2-(4-{[6-(2,6-dichlorophenyl)-8-methyl-7-oxo-7,8-dihydropyrido[2,3-d]pyrimidin-2-yl]amino}phenoxy)-N-[(1,2-dimethyl-4-nitro-1H-imidazol-5-yl)methyl]N,N-diethylethanammonium bromide] | −0.456 | 440 | 12300 | 5600 | 320 | 6100 | 370 | Yes | 83 |  | 1100 ± 100 | 30 | 18 | HT29 HCR (HT29 cells): 18 fold |
| CC[N+](CC)(CCNC(=O)c1c(C)[nH]c(/C=C2\C(=O)Nc3ccc(F)cc32)c1C)Cc1c([N+](=O)[O-])nc(C)n1C.[Br-] [Compound 145, N-[(1,2-dimethyl-4-nitro-1H-imidazol-5-yl)methyl]-N,N-diethyl-2-[({5-[(Z)-(5-fluoro-2-oxo-1,2-dihydro-3H-indol-3-ylidene)methyl]2,4-dimethyl-1H-pyrrol-3-yl}carbonyl)amino]ethanammonium bromide] | −0.456 |  |  |  |  |  |  | Yes | 87 |  | 1050 ± 40 |  |  |  |
| O=C(/C=C/CN1CCOCC1)Nc1ccc2ncnc(Nc3cccc(Br)c3)c2c1 [Compound 13, (E)-N-(4-(3-bromophenylamino)quinazolin-6-yl)-4-morpholinobut-2-enamide, reference compound] |  |  |  |  |  |  |  |  |  |  |  |  |  | IC50 (erbB1): 16 nM; IC50 (SW620 cells; [9]): 27400 nM; IC50 (SW620 cells; [10]): 29000 nM; SW620 HCR (SW620 cells): 1.5 fold; IC50 (A431 cells; [11]): 430 nM; IC50 (A431 cells; [12]): 784 nM; A431 HCR (Hypoxic Cytotoxicity Ratio) (A431 cells): 0.5 fold; IC50 (SKBR3 cells; [13]): 1040 nM; IC50 (SKBR3 cells; [14]): 664 nM; SKBR3 HCR (SKBR3 cells): 1.6 fold |
| CC[N+](CC)(CCNC(=O)c1c(C)[nH]c(/C=C2\C(=O)Nc3ccc(F)cc32)c1C)Cc1c([N+](=O)[O-])ncn1C.O=C([O-])C(F)(F)F [Compound 144, N,N-diethyl-2-[({5-[(Z)-(5-fluoro-2-oxo-1,2-dihydro-3H-indol-3-ylidene)methyl]-2,4-dimethyl-1H-pyrrol-3-yl}carbonyl)amino]-N-[(1-methyl-4-nitro-1H-imidazol-5-yl)methyl]ethanammonium trifluoroacetate] | −0.449 | 24100 | 146000 | 298000 | 10700 | 203000 | 57200 | Yes | 68 |  | 470 ± 20 | 7 | 3 | HT29 HCR (HT29 cells): 31 fold; release of effector following 1-electron reduction [2]: released their respective effector compounds |
| O=C(/C=C/CN1CCCCC1)Nc1ccc2ncnc(Nc3cccc(Br)c3)c2c1 [Compound 12, (E)-N-(4-(3-bromophenylamino)quinazolin-6-yl)-4-(piperidin-1-yl)but-2-enamide, reference compound] |  |  |  |  |  |  |  |  |  |  |  |  |  | IC50 (erbB1): 45 nM; IC50 (SW620 cells; [9]): 3810 nM; IC50 (SW620 cells; [10]): 4010 nM; SW620 HCR (SW620 cells): 1.0 fold; IC50 (A431 cells; [11]): 10 nM; IC50 (A431 cells; [12]): 23 nM; A431 HCR (Hypoxic Cytotoxicity Ratio) (A431 cells): 0.4 fold; IC50 (SKBR3 cells; [13]): 44 nM; IC50 (SKBR3 cells; [14]): 28 nM; SKBR3 HCR (SKBR3 cells): 1.6 fold |
| CC[N+](CC)(CCOc1ccc(Nc2ncc3cc(-c4c(Cl)cccc4Cl)c(=O)n(C)c3n2)cc1)Cc1c([N+](=O)[O-])ncn1C.[Br-] [Compound 140, 2-(4-{[6-(2,6-dichlorophenyl)-8-methyl-7-oxo-7,8-dihydropyrido[2,3-d]pyrimidin-2-yl]amino}phenoxy)-N,N-diethyl-N-[(1-methyl-4-nitro-1H-imidazol-5-yl)methyl]ethanammonium bromide] | −0.429 | 510 | 7900 | 4600 | 310 | 4700 | 430 | Yes | 92 |  | 310 ± 20 | 15 | 13 | HT29 HCR (HT29 cells): 15 fold; release of effector following 1-electron reduction [2]: released their respective effector compounds |
| CN(C)C/C=C/C(=O)Nc1cc2c(Nc3ccc(F)c(C(F)(F)F)c3)ncnc2cn1 [Compound 170] |  |  |  |  |  |  |  |  |  |  |  |  |  | IC50 (SKOV3 cells; 24 hour exposure oxic, read-out: Cellular Growth Inhibition IC50 SKOV3 Oxic): 990 nM; IC50 (SKOV3 cells; first 4 hours anoxic, read-out: Cellular Growth Inhibition IC50 SKOV3 Anoxic): 1800 nM; SKOV3 HCR (SKOV3 cells): 0.7 fold; IC50 (erbB1): 8 nM; IC50 (A431 cells; Homo sapiens, A-431, 4 h, read-out: Cellular Growth Inhibition IC50 A431 Anoxic): 250 nM; IC50 (A431 cells; [11]): 240 nM; A431 HCR (A431 cells; Table 9): 1.5 fold; IC50 (H1975 cells; Homo sapiens, NCI-H1975, Table 9, 24 hour exposure oxic, read-out: Cellular Growth Inhibition IC50 H1975 Oxic): 1700 nM; IC50 (H1975 cells; Homo sapiens, NCI-H1975, Table 9, first 4 hours anoxic, read-out: Cellular Growth Inhibition IC50 H1975 Anoxic): 1380 nM; H1975 HCR (H1975 cells; Table 9): 1.2 fold |

More lines, main results first:

| E (1)/V (one-electron reduction potential) [1] [V] | IC50 (A431 cells; [3]) [nM] | IC50 (A431 cells; [4]) [nM] | IC50 (HT29 cells; [5]) [nM] | IC50 (HT29 cells; [6]) [nM] | IC50 (H1975 cells; [7]) [nM] | IC50 (H1975 cells; [8]) [nM] | Detection of MNA (methyl nitroaromatic) [2] | % Loss of prodrug [2] [%] | melting point | Compound | kfrag. (fragmentation rate constant upon 1-electron reduction) [1] [s⁻¹] | A431 HCR (A431 cells; Table 7) [fold] | H1975 HCR (H1975 cells; Table 7) [fold] | also measured |
| --- | --- | --- | --- | --- | --- | --- | --- | --- | --- | --- | --- | --- | --- | --- |
|  |  |  |  |  |  |  |  |  | 177 °C (dec.) | Cn1cnc([N+](=O)[O-])c1C[N+](C)(C)CCCC(=O)Nc1ccc2ncnc(Nc3cccc(Br)c3)c2c1 (as salt: bromide) [Compound 27, 4-{([4-(3-bromoanilino)-6-quinazolinyl]amino}-N,N-dimethyl-N-[(1-methyl-4-nitro-1H-imidazol-5-yl)methyl]-4-oxo-1-butanaminium bromide] |  |  |  |  |
|  | 59 | 3600 | > 100000 | > 30000 | 64500 | 2300 |  |  |  | Cn1cnc([N+](=O)[O-])c1C[N+](C)(C)C/C=C/C(=O)Nc1cc2c(Nc3ccc(F)c(Cl)c3)ncnc2cc1O[C@H]1CCOC1.O=C([O-])C(F)(F)F [Compound 82, (2E)-4-({4-(3-chloro-4-fluoroanilino)-7-[(3S)-tetrahydro-3-furanyloxy]-6-quinazolinyl}amino)-N,N-dimethyl-N-[(1-methyl-4-nitro-1H-imidazol-5-yl)methyl]-4-oxo-2-buten-1-ammonium trifluoroacetate] |  | 62 | 28 |  |
|  |  |  |  |  |  |  |  |  | 178 to 181 °C | C[N+](C)(C/C=C/C(=O)Nc1ccc2ncnc(Nc3cccc(Br)c3)c2c1)Cc1ccc([N+](=O)[O-])cc1 (as salt: bromide) [Compound 17, (2E)-4-{[4-(3-bromoanilino)-6-quinazolinyl]amino}-N,N-dimethyl-N-(4-nitrobenzyl)-4-oxo-2-buten-1-ammonium bromide] |  |  |  |  |
|  |  |  |  |  |  |  |  |  | 166 to 169 °C | C[N+](C)(C/C=C/C(=O)Nc1ccc2ncnc(Nc3cccc(Br)c3)c2c1)Cc1ccccc1[N+](=O)[O-] (as salt: bromide) [Compound 18, (2E)-4-{[4-(3-bromoanilino)-6-quinazolinyl]amino}-N,N-dimethyl-N-(2-nitrobenzyl)-4-oxo-2-buten-1-ammonium bromide] |  |  |  |  |
|  |  |  |  |  |  |  |  |  | 125 to 129 °C | Cn1cnc([N+](=O)[O-])c1C[N+]1(C/C=C/C(=O)Nc2ccc3ncnc(Nc4cccc(Br)c4)c3c2)CCOCC1.O=C[O-] |  |  |  |  |

— patent US9073916B2, “Prodrug forms of kinase inhibitors and their use in therapy” (AUCKLAND UNISERVICES LIMITED, priority 2009, dated 2015)
